Where a name gives a salt, the structure may show the parent alone.
System: ISC-enriched organoids
Experiment: Primary screen, 384-well 2.5-D organoid differentiation (ENR+CD, 6 days, Target Selective Inhibitor Library, vs whole-plate median): ATP (CellTiter-Glo 3D, CTG)
Settings: standard z score of FC

Compound | Z.CTG (primary screen, dose 0.08 uM) | Z.CTG (primary screen, dose 0.40 uM) | Z.CTG (primary screen, dose 2.00 uM) | Z.CTG (primary screen, dose 10.00 uM) | Z.CTG (Dose 10.00 uM) | Z.CTG (Dose 0.08 uM) | Z.CTG (Dose 0.40 uM) | Z.CTG (Dose 2.00 uM)
Cc1ccccc1C(C(=O)NC1CCCCC1)N(C(=O)Cn1ccnc1C)c1cccc(F)c1 (centres unmarked) [AGI-5198] | 0.738 | 0.368 | 0.671 | 0.802 |  |  |  | 
CC(=O)Nc1nc2c(Oc3cc(-c4ccc(C(F)(F)F)cc4)ncn3)cccc2s1 [AMG-517] | 0.385 | 0.269 | 0.268 | 0.135 |  |  |  | 
COc1cc(N2CCC(N3CCN(C)CC3)CC2)ccc1Nc1ncc(Cl)c(Nc2ccccc2P(C)(C)=O)n1 [AP26113] | −0.130 | 0.145 | −1.333 | −4.012 |  |  |  | 
NC(=O)c1ncn([C@@H]2O[C@H](CO)[C@@H](O)[C@H]2O)c1N [Acadesine] | 0.225 | 0.413 | −0.012 | 0.182 |  |  |  | 
COc1ccc2cccc(CCNC(C)=O)c2c1 [Agomelatine] | 0.252 | 0.193 | −0.472 | 0.056 |  |  |  | 
Oc1ncnc2[nH]ncc12 [Allopurinol] | 0.506 | −0.234 | −0.387 | −1.085 |  |  |  | 
CCOC(=O)[C@H]1O[C@@H]1C(=O)N[C@@H](CC(C)C)C(=O)NCCC(C)C [Aloxistatin] | −0.015 | −0.014 | −0.308 | −0.511 |  |  |  | 
CCOC(=O)C1=C(COCCN)NC(C)=C(C(=O)OC)C1c1ccccc1Cl (centres unmarked) [Amlodipine] | −0.837 | −0.866 | −0.888 | −1.006 |  |  |  | 
COc1ccc(C(=O)N2CCCC2=O)cc1 [Aniracetam] | −0.211 | 0.267 | 0.130 | 0.045 |  |  |  | 
N#CC1(c2ccc(NC(=O)c3cccnc3NCc3ccncc3)cc2)CCCC1 [Apatinib] | 0.532 | 0.722 | 0.645 | 0.520 |  |  |  | 
O=c1cc(-c2ccc(O)cc2)oc2cc(O)cc(O)c12 [Apigenin] | 0.588 | 0.510 | 0.753 | 0.063 |  |  |  | 
COc1ccc(-n2nc(C(N)=O)c3c2C(=O)N(c2ccc(N4CCCCC4=O)cc2)CC3)cc1 [Apixaban] | −0.212 | 0.266 | −0.144 | −0.185 |  |  |  | 
C[C@@H](O[C@H]1OCCN(Cc2n[nH]c(=O)[nH]2)[C@H]1c1ccc(F)cc1)c1cc(C(F)(F)F)cc(C(F)(F)F)c1 [Aprepitant] | 0.747 | 0.962 | 0.346 | 0.121 |  |  |  | 
CC[C@@H]1C(=O)N(C)c2cnc(Nc3ccc(C(=O)NC4CCN(C)CC4)cc3OC)nc2N1C1CCCC1 [BI 2536] | 0.069 | −1.275 | −1.220 | −2.455 |  |  |  | 
Cn1c(N2CCCCS2(=O)=O)nc(C(=O)NCc2ccc(F)cc2)c(O)c1=O [BMS-707035] | 0.759 | 0.568 | 0.667 | 0.330 |  |  |  | 
Cc1c(-c2ccc(O)cc2)n(Cc2ccc(OCCN3CCCCCC3)cc2)c2ccc(O)cc12 [Bazedoxifene HCl] | 1.009 | 0.873 | −1.862 | −2.741 |  |  |  | 
COc1c(O)cc2c(c1O)[C@@H]1O[C@H](CO)[C@@H](O)[C@H](O)[C@H]1OC2=O [Bergenin] | 0.687 | 0.585 | 0.491 | 0.821 |  |  |  | 

Compound | Z.CTG (primary screen, dose 0.08 uM) | Z.CTG (primary screen, dose 0.40 uM) | Z.CTG (primary screen, dose 2.00 uM) | Z.CTG (primary screen, dose 10.00 uM) | Z.CTG (Dose 10.00 uM) | Z.CTG (Dose 0.08 uM) | Z.CTG (Dose 0.40 uM) | Z.CTG (Dose 2.00 uM)
CC[C@H](NC(=O)[C@H](C)NC)C(=O)N1C[C@@H](O)C[C@H]1Cc1c(-c2[nH]c3cc(F)ccc3c2C[C@@H]2C[C@H](O)CN2C(=O)[C@H](CC)NC(=O)[C@H](C)NC)[nH]c2cc(F)ccc12 [Birinapant] | −0.615 | 0.226 | 0.542 | 0.293 |  |  |  | 
CC(C)NCC(O)COc1ccc(COCCOC(C)C)cc1 (centres unmarked) [Bisoprolol fumarate] | −0.249 | −0.136 | −0.048 | 0.139 |  |  |  | 
COc1ccccc1Oc1c(NS(=O)(=O)c2ccc(C(C)(C)C)cc2)nc(-c2ncccn2)nc1OCCO [Bosentan Hydrate] | 0.487 | 0.495 | 0.288 | 0.204 |  |  |  | 
CCN[C@H]1CN(CCCOC)S(=O)(=O)c2sc(S(N)(=O)=O)cc21 [Brinzolamide] | −0.017 |  | 0.282 |  |  |  |  | 
CCCCN1CCCCC1C(=O)Nc1c(C)cccc1C (centres unmarked) [Bupivacaine HCl] | −0.008 | −0.517 | −0.717 |  | −0.870 |  |  | 
CCNC(=O)[C@H]1O[C@@H](n2cnc3c(N)nc(NCCc4ccc(CCC(=O)O)cc4)nc32)[C@H](O)[C@@H]1O [CGS 21680 HCl] |  |  |  |  | −3.328 | 0.724 | 1.049 | 0.799
COCCOc1ccc2c(c1)ncn2-c1ccc2cccc(N3CCC(N)CC3)c2n1 [CP-673451] |  |  |  |  | −0.616 | 0.166 | 0.445 | 0.018
O=C(/C=C/c1ccc(O)c(O)c1)OCCc1ccccc1 [Caffeic Acid Phenethyl Ester] |  |  |  |  | −1.221 | 0.627 | −0.026 | −0.152
C[C@H](CS)C(=O)N1CCC[C@H]1C(=O)O [Captopril] |  |  |  |  | 0.255 | −0.134 | 0.257 | 0.294
COc1ccccc1OCCNCC(O)COc1cccc2[nH]c3ccccc3c12 (centres unmarked) [Carvedilol] |  |  |  |  | −0.577 | 0.136 | −0.034 | −0.360
Cc1ccc(-c2cc(C(F)(F)F)nn2-c2ccc(S(N)(=O)=O)cc2)cc1 [Celecoxib] |  |  |  |  | −0.306 | −0.082 | −0.714 | −0.282
COc1ccc([C@]2(C#N)CC[C@@H](C(=O)O)CC2)cc1OC1CCCC1 [Cilomilast] |  |  |  |  | −0.458 | −0.799 | −0.807 | −0.562
C[C@@H](NCCCc1cccc(C(F)(F)F)c1)c1cccc2ccccc12 [Cinacalcet HCl] |  |  |  |  | −1.076 | −1.061 | −0.712 | −0.028
C=C1C(=O)O[C@@H]2/C=C(\C)CC/C=C(\C)CC[C@@H]12 [Costunolide] |  |  |  |  | 0.019 | −0.070 | 0.288 | 0.120
CC(=O)O[C@]1(C(C)=O)CC[C@H]2[C@@H]3C=C(Cl)C4=CC(=O)[C@@H]5C[C@@H]5[C@]4(C)[C@H]3CC[C@@]21C [Cyproterone Acetate] |  |  |  |  | −0.414 | −0.263 | 0.122 | −0.341
COc1cc2nc(N3CCN(C(=O)C4COc5ccccc5O4)CC3)nc(N)c2cc1OC (centres unmarked) [Doxazosin Mesylate] |  |  |  |  | 0.179 | 0.171 | −0.037 | 0.349
O=C(N/N=C/c1ccc(O)c(O)c1)c1cc2ccccc2cc1O [Dynasore] |  |  |  |  | −0.026 | −0.592 | −0.604 | −0.364
